Experimental findings from patent publication US11072626B2, “Small molecule inhibitors of Galectin-3” (BRISTOL-MYERS SQUIBB COMPANY, priority 2017, dated 2021) are described below.

Sequence of His-tagged recombinant human Gal-3 (hGal-3) (P17931 whole entry): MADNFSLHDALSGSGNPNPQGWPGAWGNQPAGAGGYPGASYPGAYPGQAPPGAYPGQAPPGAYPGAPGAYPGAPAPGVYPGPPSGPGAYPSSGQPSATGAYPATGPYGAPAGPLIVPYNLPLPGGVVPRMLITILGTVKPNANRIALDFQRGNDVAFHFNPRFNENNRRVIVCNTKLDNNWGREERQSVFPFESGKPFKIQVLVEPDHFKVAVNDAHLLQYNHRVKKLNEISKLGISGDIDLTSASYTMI

One test has as its target His-tagged recombinant human Gal-3 (hGal-3) (Homo sapiens (Human), UniProt P17931). The test is described as follows: Gal-3 HTRF assay (hGal-3 / B-ASF). The test is classed as binding. As to conditions: 15 nM hGal-3, 15 nM B-ASF, table after Example 4, read-out: hGal3 IC50. On the procedure:
ASSAY BUFFER Composition: 25 mM HEPES, 100 mM NaCl, 0.005% Tween 20, 0.05% BSA prepared in sterile water (all reagents from Sigma)
Positive Control: 100% DMSO (1 μl)+His-tagged hGal-3 (20 μL)+B-ASF (20 μl)+Anti-His Terbium Antibody (5 μl)+Strep d2 Antibody (5 μl).
Negative Control: 100% DMSO (1 μl)+His-tagged hGal-3 (20μL)+Anti His Terbium Antibody (5 μl)+Strep d2 Aantibody (5 μl).
PROTOCOL: The Gal-3 assays were performed in 384 white Opti plates in three replicates at room temperature with gentle shaking at 250-300 rpm From the original stocks, […] working stock concentrations of His-tagged recombinant human Gal-3 (hGal-3) and that of B-ASF were prepared. From the working stock, 20 μl of hGal-3 (15 nM) and 20 μl B-ASF (15 nM) were added to the plates. In Negative Control, only hGal-3 was added. A concentration range of 50× working stocks were prepared for the compounds in 100% DMSO. Aliquots of 1 uL of the compounds were added to the wells and pre-incubated with 20 μl hGal-3 per well for 30 minutes Then 20 μl B-ASF were added and incubated for another 1 hour. To detect the signal, 5 μ(final conc. of 1.0 nM) terbium labelled Anti-His antibody was added and incubated for 30 min followed by adding 5 μ(final conc. of 20 nM) Streptavidin d2 and incubation for another 1 hour. The assay signal was detected using HTRF screen protocol (Excitation wavelength=340 nm, emission wavelength=615 nm/665 nm) on Envision 2104 Multilabel Reader. Data analysed using Toolset and Curve Master. Results are reported in the experimental section (IC50 in μM).
For orientation: TR-FRET usually uses a lanthanide donor and a delayed reading to cut background.
On to `O=C(O)CO[C@@H]1[C@@H](n2cc(-c3cc(F)c(F)c(F)c3)nn2)[C@@H](O)[C@@H](CO)O[C@@H]1Sc1ccc(Cl)c(Cl)c1` [compound 2, 2-(((2R,3R,4S,5R,6R)-2-((3,4-dichlorophenyl)thio)-5-hydroxy-6-(hydroxymethyl)-4-(4-(3,4,5-trifluorophenyl)-1H-1,2,3-triazol-1-yl)tetrahydro-2H-pyran-3-yl)oxy)acetic acid], for which the IC50 (as a rule, the concentration that inhibits the measured activity by half) came to 46 nM. Same read-out and setting: the figure for `OC[C@H]1O[C@H](Sc2ccc(Cl)c(Cl)c2)[C@H](OCCN2CCOCC2)[C@@H](n2cc(-c3cc(F)c(F)c(F)c3)nn2)[C@H]1O` [compound 5, (2R,3R,4S,5R,6R)-6-((3,4-dichlorophenyl)thio)-2-(hydroxymethyl)-5-(2-morpholinoethoxy)-4-(4-(3,4,5-trifluorophenyl)-1H-1,2,3-triazol-1-yl)tetrahydro-2H-pyran-3-ol] is 195 nM.

Staying with this test, now noted: 15 nM hGal-3, 15 nM B-ASF, table after Example 46, read-out: hGal3 IC50.
On to `COc1ccc(-c2cn([C@H]3[C@@H](O)[C@@H](CO)O[C@H](Sc4ccc(Cl)c(Cl)c4)[C@@H]3OCC(=O)O)nn2)cc1` [Example 47], for which the IC50 worked out at 1530 nM. Still for that read-out and setting: the figure for `COc1cccc(-c2cn([C@H]3[C@@H](O)[C@@H](CO)O[C@H](Sc4ccc(Cl)c(Cl)c4)[C@@H]3OCC(=O)O)nn2)c1` [Example 48] is 740 nM; for `Cc1cccc(-c2cn([C@H]3[C@@H](O)[C@@H](CO)O[C@H](Sc4ccc(Cl)c(Cl)c4)[C@@H]3OCC(=O)O)nn2)c1` [Example 49] it is 1340 nM; for `O=C(O)CO[C@@H]1[C@@H](n2cc(-c3ccc(Cl)cc3)nn2)[C@@H](O)[C@@H](CO)O[C@@H]1Sc1ccc(Cl)c(Cl)c1` [Example 50] it is 620 nM.

As to `O=C(O)CO[C@@H]1[C@@H](n2cc(-c3ccccc3F)nn2)[C@@H](O)[C@@H](CO)O[C@@H]1Sc1ccc(Cl)c(Cl)c1` [Example 51], the IC50 is 1610 nM. With `O=C(O)CO[C@@H]1[C@@H](n2cc(-c3cc(F)cc(F)c3)nn2)[C@@H](O)[C@@H](CO)O[C@@H]1Sc1ccc(Cl)c(Cl)c1` [Example 52], the IC50 was found to be 250 nM. Same read-out and setting: the figure for `Cc1ccccc1-c1cn([C@H]2[C@@H](O)[C@@H](CO)O[C@H](Sc3ccc(Cl)c(Cl)c3)[C@@H]2OCC(=O)O)nn1` [Example 53] is 1750 nM; for `Cc1cc(-c2cn([C@H]3[C@@H](O)[C@@H](CO)O[C@H](Sc4ccc(Cl)c(Cl)c4)[C@@H]3OCC(=O)O)nn2)ccc1F` [Example 54] it is 230 nM. Same read-out and setting: the figure for `O=C(O)CO[C@@H]1[C@@H](n2cc(-c3ccc(F)c(F)c3)nn2)[C@@H](O)[C@@H](CO)O[C@@H]1Sc1ccc(Cl)c(Cl)c1` [Example 55] is 70 nM; for `COC(=O)c1ccc(-c2cn([C@H]3[C@@H](O)[C@@H](CO)O[C@H](Sc4ccc(Cl)c(Cl)c4)[C@@H]3OCC(=O)O)nn2)cc1` [Example 56] it is 7430 nM; for `O=C(O)CO[C@@H]1[C@@H](n2cc(-c3cccc(F)n3)nn2)[C@@H](O)[C@@H](CO)O[C@@H]1Sc1ccc(Cl)c(Cl)c1` [Example 57] it is 310 nM. On the same count and under the same terms, in the case of `O=C(O)CO[C@@H]1[C@@H](n2cc(-c3ccc(F)cn3)nn2)[C@@H](O)[C@@H](CO)O[C@@H]1Sc1ccc(Cl)c(Cl)c1` [Example 58] it was 840 nM; in that of `O=C(O)CO[C@@H]1[C@@H](n2cc(-c3cc(F)ccn3)nn2)[C@@H](O)[C@@H](CO)O[C@@H]1Sc1ccc(Cl)c(Cl)c1` [Example 59], 5550 nM.

The test is the same for the next values; noted with them: 15 nM hGal-3, 15 nM B-ASF, three replicates, room temperature, read-out: hGal3 IC50.
Turning to `CO[C@@H]1[C@@H](n2nncc2C(=O)O)[C@@H](O)[C@@H](CO)O[C@@H]1Sc1ccc(Cl)c(Cl)c1` [Example 45, 1-((2R,3R,4S,5R,6R)-2-((3,4-dichlorophenyl)thio)-5-hydroxy-6-(hydroxymethyl)-3-methoxytetrahydro-2H-pyran-4-yl)-1H-1,2,3-triazole-5-carboxylic acid], the IC50 was determined as 1520 nM. On the same count and under the same terms, the figure for `O=C(O)CO[C@@H]1[C@@H](n2cc(-c3ccccc3)nn2)[C@@H](O)[C@@H](CO)O[C@@H]1Sc1ccc(Cl)c(Cl)c1` [Example 46, 2-(((2R,3R,4S,5R,6R)-2-((3,4-dichlorophenyl)thio)-5-hydroxy-6-(hydroxymethyl)-4-(4-phenyl-1H-1,2,3-triazol-1-yl)tetrahydro-2H-pyran-3-yl)oxy)acetic acid] is 1360 nM; for `OC[C@H]1O[C@H](Sc2ccc(Cl)c(Cl)c2)C[C@@H](n2cc(-c3cc(F)c(F)c(F)c3)nn2)[C@H]1O` [Example 60, (2R,3R,4R,6R)-6-((3,4-dichlorophenyl)thio)-2-(hydroxymethyl)-4-(4-(3,4,5-trifluorophenyl)-1H-1,2,3-triazol-1-yl)tetrahydro-2H-pyran-3-ol] it is 2200 nM; for `O=S(=O)(c1ccc(Cl)c(Cl)c1)[C@@H]1C[C@@H](n2cc(-c3cc(F)c(F)c(F)c3)nn2)[C@@H](O)[C@@H](CO)O1` [Example 61, (2R,3R,4R,6R)-6-((3,4-dichlorophenyl)sulfonyl)-2-(hydroxymethyl)-4-(4-(3,4,5-trifluorophenyl)-1H-1,2,3-triazol-1-yl)tetrahydro-2H-pyran-3-ol] it is 160 nM. Turning to `O=C(O)CO[C@@H]1[C@@H](n2cnc(-c3cccc(F)c3)c2)[C@@H](O)[C@@H](CO)O[C@@H]1Sc1ccc(Cl)c(Cl)c1` [Example 63, 2-(((2R,3R,4S,5R,6R)-2-((3,4-dichlorophenyl)thio)-4-(4-(3-fluorophenyl)-1H-imidazol-1-yl)-5-hydroxy-6-(hydroxymethyl)tetrahydro-2H-pyran-3-yl)oxy)acetic acid], the IC50 is 1560 nM.
